Test results as given in patent US20240307545A1, “CONJUGATE OF SAPONIN, OLIGONUCLEOTIDE AND GALNAC” (priority 2021, published 2024).
Where two headings read alike, the source gives them in different places. [BNANC] = BNA^NC bridged nucleic acid nucleotide; {ThiolC6} = thiol C6 linker; d = 2'-deoxy (DNA)

Key:
apoB [1] = experiment: apoB gene silencing in Huh7 cells (qPCR); format: cell-based, human; conditions: hepatocytes with very low ASGPR1 expression (Huh7)
Experimental: Primary hepatocytes which highly express ASGPR1 (ASGPR1^high) and Huh7 hepatocyte cell line (low ASGPR1 expression) were treated with a concentration range of trivalent-GalNAc-ApoBBNA (TrivalentGalNAc-ApoBBNA), either in absence or presence of 300 nM trivalent-GalNAc-SO1861 (TrivalentGalNAc-SPT001) (FIGS. 20A and B).
In addition, the primary hepatocytes and the liver cells of cell line Huh7 were contacted with a concentration series of a saponin-oligonucleotide-ASGPR ligand conjugate, i.e. trivalent GalNAc conjugated with both SO1861 (DAR is 4, in a dendron with four SO1861 molecules) and ApoB BNA (SEQ ID NO: 2) ((GalNAc)3-dSPT4-ApoB (FIG. 20E), or TrivalentGalNAc-ApoBBNA-dendron(SO1861)4), and apoB mRNA expression was assessed (FIGS. 20A and B).
ApoB gene silencing in HepG2 (ASGPR1+) cells or Huh7 (ASGPR1^+/−) was determined.
RNA from cells was isolated and analysed according to standard protocols (Biorad). qPCR primers that were used are indicated in Table A2.
RNA from cells was isolated using TRI Reagent® Solution (Thermo Scientific) according to the manufacturer's instruction. Conversion into cDNA was performed using iScript™ cDNA Synthesis Kit (BioRad) using standard protocols. […]

apoB [2] = experiment: apoB mRNA expression in primary human hepatocytes (qPCR); format: cell-based; conditions: for IC50: primary human hepatocytes, read-out: IC50 apoB RNA levels
Experimental: (§1) Cryopreserved primary human hepatocytes (Cytes Biotechnologies S.L., Spain) were thawed in hepatocyte thawing media (Cytes Biotechnologies S.L., Spain). […] Cells were pre-cultured for 4-6 hrs at 37° C. allowing for cell attachment to cell culture plates before the start of treatment. Plating medium was replaced by 315 μl or 108 μl maintenance media (Cytes Biotechnologies S.L., Spain), after which conjugates were added from a 10× concentrated stock solution in PBS. Plates were incubated for 72 hr at 37° C. being harvested for gene expression and cell viability analysis.
as §1

[3] = Endosomal escape enhancing activity of saponin; conditions: compared with SO1861
[4] = In vivo tolerability (clinical observations, body weight) in C57BL/6J mice; conditions: Study A; doses and regimens of Table A5, i.v.
Experimental: (§2) • i. Dose administration and in-life phase. Per group, 8 C57BL/6J male mice for treatment groups (in Study A, 14 mice in vehicle control group), approximately 6-7 weeks at arrival and 8-9 weeks at dosing, were dosed. The compounds, formulated in PBS or PBS alone (vehicle) according to Table A5 and Table A6, were dosed at 5 ml/kg in the tail vain (intravenously, i.v.), with dose volumes corresponding to the individual bodyweights. Where applicable, trivalent (GalNAc)3-SO1861 (EMCH) was co-administered at 5 ml/kg in the tail vain (i.v.) right after the trivalent GalNAc-ApoB conjugate. Animals were weighed weekly and clinical observations were performed 2-3 times daily within the first 48 hrs, and at least once daily thereafter until study end. • ii. Sampling of serum, liver, and kidney tissue. […] At the relevant inter-study post-dose timepoints, 3 animals per timepoint per treatment group (6 animals in the vehicle control group in Study A) were sacrificed to collect terminal bleeds and collect relevant organs, such as liver and kidney tissues for further analyses. at end of study, the remaining 2 animals (4 in the control group in Study A) per group were sacrificed. One half of the liver and one kidney was frozen and used for tissue RNA analysis.

apoB [5] = experiment: ApoB expression analysis in liver tissue of C57BL/6J mice (qRT-PCR); format: in vivo; conditions: for reduction of apoB RNA levels (gene expression) in liver compared to vehicle / reduction of apoB expression in liver compared to vehicle: Study A; for reduction of apoB RNA levels (gene expression) in liver compared to vehicle: 24 hrs
Experimental: as §2
The mRNA was isolated from frozen liver tissue using TRIzol® Reagent (Thermo Scientific) according to the manufacturer's instruction. Conversion into cDNA was performed using iScript™ cDNA Synthesis Kit (BioRad). ApoB expression levels and levels of specific liver housekeeping genes were determined using quantitative real-time PCR assays (qRT-PCR) using iTaq™ Universal SYBR® Green Supermix (BioRad) and the Light Cycler 480 (Roche Diagnostics, Rotkreuz, Switzerland) with specific DNA primers, listed in Table A4 (Study A) and Table A7 (Study B), respectively. Analysis was done by the ΔCt method to determine apoB expression relative to 2 liver-specific housekeeping control mRNAs. Each analysis reaction was performed in triplicate.

LDL-cholesterol = experiment: Serum LDL-cholesterol (LDL-C) analysis in C57BL/6J mice; format: in vivo
Experimental: as §2
LDL-cholesterol was measured in mouse serum, using an LDL-cholesterol specific two-step AU480 assay kit, respectively, from Beckman Coulter, with a photometric measurement according to the manufacturer's instructions.

Compound: (GalNAc)3-dSPT4-ApoB: trivalent GalNAc conjugated with a dendron with four SO1861 moieties and ApoB BNA (SEQ ID NO: 2) via trifunctional linker (GCCTCAGTCTGCTTCGCACC; BNA oligo conjugated to trivalent GalNAc and dendron of four SO1861 saponins, further chemistry not given here)
- response: apoB mRNA silencing (apoB [1]; low nM, conjugate alone): not responsive
- apoB gene (mRNA) silencing potency, factor higher than the GalNAc-ApoB BNA conjugate lacking covalently linked saponin (apoB [2]; primary hepatocytes, concentration series): ~100

Compound: TrivalentGalNAc-ApoBBNA: conjugate of trivalent GalNAc and the ApoB antisense BNA oligonucleotide ApoBBNA (SEQ ID NO: 2); L or S linker not stated (GCCTCAGTCTGCTTCGCACC; BNA oligonucleotide conjugated to trivalent GalNAc, pattern not explicitly stated, further chemistry not given here)
- response: apoB mRNA silencing (apoB [1]; low nM + trivalentGalNAc-SPT001): not responsive

Compound: CC(=O)OC1C(C)OC(OC2C(C)OC(OC(=O)[C@]34CCC(C)(C)CC3C3=CCC5[C@@]6(C)CC[C@H](OC7OC(C(=O)O)C(O)C(OC8OCC(O)C(O)C8O)C7OC7OC(CO)C(O)C(O)C7O)[C@@](C)(C=O)C6CC[C@@]5(C)[C@]3(C)C[C@H]4O)C(OC3OC(C)C(OC4OCC(O)C(OC5OCC(O)C(O)C5O)C4O)C(O)C3O)C2O)C(O)C1OC1OCC(O)C(O)C1O (some centres unmarked) [SO1832]
- endosomal escape enhancing activity towards an oligonucleotide (or protein toxin) in the endosome [3]: about equally active as SO1861

Compound: ApoB#02 BNA: BNA^NC antisense oligonucleotide 5′-GCattggtatTCA-3′ [SEQ ID NO: 12], fully phosphorothioated, 5′-Thiol C6 linker (GCATTGGTATTCA; sugars from the 5' end [BNANC]2 d8 [BNANC]3, all phosphorothioate, 5' {ThiolC6}, methylation of C not given here)
- tolerability (adverse findings, clinical observations) [4]: well tolerated
- IC50 (apoB [2]; relative ApoB#02 BNA concentration, without transfection agent): 400 nM
- IC50 (apoB [2]; transfection with RNAi-MAX): 8 nM
- reduction of apoB RNA levels (gene expression) in liver compared to vehicle (apoB [5]; 0.1 mg/kg i.v.): not noticeably reduced
- reduction of apoB RNA levels (gene expression) in liver compared to vehicle (apoB [5]; 1 mg/kg i.v.): ~15%
- reduction of apoB RNA levels (gene expression) in liver compared to vehicle (apoB [5]; 2 mg/kg i.v.): ~21%
- reduction of apoB expression in liver compared to vehicle (apoB [5]; 2 mg/kg, 72 hrs): 39%
- reduction of apoB expression in liver compared to vehicle (apoB [5]; 2 mg/kg, 336 hrs): 30%
- apoB RNA levels (gene expression) in liver, % of vehicle control (apoB [5]; Study B, 2 mg/kg, 72 hrs): 53%
- reduction of serum LDL-C compared to vehicle (LDL-cholesterol; Study A, 2 mg/kg, 72 hrs): ~50%
- reduction of serum LDL-C compared to vehicle (LDL-cholesterol; Study A, 2 mg/kg, 336 hrs): ~40%
- serum LDL-C levels compared to vehicle (in words) (LDL-cholesterol; Study A, 0.1, 1, or 2 mg/kg, 24 hrs): not noticeably reduced
- serum LDL-C level (LDL-cholesterol; Study B, 2 mg/kg, 72 hrs post-dose): 2 mg/dL
